# Tests used:
# Format in all cases: in vivo
# [1] = tested on: redroot pigweed (Amaranthus retroflexus, AMARE); assay: Pre-emerge test, greenhouse herbicide activity screening; details: pre-emerge, rated 14 days after application, 0 = no damage, 100 = complete death
# In short: (§1)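 Plants grown in 10 cm pots of sandy loam mix received acetone-dissolved compounds through a moving flat-fan nozzle. Doses ranged from 15 to 1000 g ai/ha. Pre-emerge pots were seeded one day earlier, post-emerge pots 8–21 days earlier. Fourteen days on, each pot was graded 0–100 for damage.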
# [2] = tested on: barnyardgrass (Echinochloa crus-galli, ECHCG); assay: as above; details: pre-emerge, rated 14 days after application, 0 = no damage, 100 = complete death
# In short: (§2)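 Compounds in acetone were track-sprayed at 187 l/ha, 15–1000 g ai/ha, onto sandy loam pots. Pre-emerge seeds were sown one day before spraying, with surface watering afterwards. Post-emerge plants were at the 2–3 leaf stage and sprayed with 0.25% v/v non-ionic surfactant. Injury was rated 0–100 at 14 days.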
# [3] = tested on: green foxtail (Setaria viridis, SETVI); assay: as above; details: pre-emerge, rated 14 days after application, 0 = no damage, 100 = complete death
# In short: as §2
# [4] = tested on: ivyleaf morningglory (Ipomoea hederacea, IPOHE); assay: as above; details: pre-emerge, rated 14 days after application, 0 = no damage, 100 = complete death
# In short: as §2
# [5] = tested on: johnsongrass (Sorghum halepense, SORHA); assay: as above; details: pre-emerge, rated 14 days after application, 0 = no damage, 100 = complete death
# In short: as §2
# [6] = tested on: lambsquarters (Chenopodium album, CHEAL); assay: as above; details: pre-emerge, rated 14 days after application, 0 = no damage, 100 = complete death
# In short: as §2
# [7] = tested on: large crabgrass (Digitaria sanguinalis, DIGSA); assay: as above; details: pre-emerge, rated 14 days after application, 0 = no damage, 100 = complete death
# In short: as §2
# [8] = tested on: sicklepod (Cassia obtusifolia, CASOB); assay: as above; details: pre-emerge, rated 14 days after application, 0 = no damage, 100 = complete death
# In short: as §2
# [9] = tested on: velvetleaf (Abutilon theophrasti, ABUTH); assay: as above; details: pre-emerge, rated 14 days after application, 0 = no damage, 100 = complete death
# In short: as §2
# [10] = tested on: field corn (Zea mays L., var. Dekalb 535, CORN); assay: Pre-emerge test, crop safety; details: pre-emerge, rated 14 days after application, 0 = no damage, 100 = complete death
# In short: (§3)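 Fourteen days after spraying, crop and weed injury was graded visually from 0, no effect, to 100, every plant dead. Test substances were dissolved in acetone and applied at 15–1000 g ai/ha with a flat-fan nozzle. Application was either pre-emergence, one day after sowing, or post-emergence at the 2–3 leaf stage.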
# [11] = tested on: upland rice (Oryza sp., var. Tebonnet, RICE); assay: Pre-emerge test, crop safety; details: pre-emerge, rated 14 days after application, 0 = no damage, 100 = complete death
# In short: as §3
# [12] = tested on: barnyardgrass (Echinochloa crus-galli, ECHCG); assay: Post-emerge test, greenhouse herbicide activity screening; details: phytotoxicity rating 0-100 (0 no damage, 100 complete death), 14 days after application
# In short: as §1
# [13] = tested on: green foxtail (Setaria viridis, SETVI); assay: as above; details: phytotoxicity rating 0-100 (0 no damage, 100 complete death), 14 days after application
# In short: as §1
# [14] = tested on: ivyleaf morningglory (Ipomoea hederacea, IPOHE); assay: as above; details: phytotoxicity rating 0-100 (0 no damage, 100 complete death), 14 days after application
# In short: as §1
# [15] = tested on: johnsongrass (Sorghum halepense, SORHA); assay: as above; details: phytotoxicity rating 0-100 (0 no damage, 100 complete death), 14 days after application
# In short: as §1
# [16] = tested on: lambsquarters (Chenopodium album, CHEAL); assay: as above; details: phytotoxicity rating 0-100 (0 no damage, 100 complete death), 14 days after application
# In short: as §1
# [17] = tested on: large crabgrass (Digitaria sanguinalis, DIGSA); assay: as above; details: phytotoxicity rating 0-100 (0 no damage, 100 complete death), 14 days after application
# In short: as §1
# [18] = tested on: redroot pigweed (Amaranthus retroflexus, AMARE); assay: as above; details: phytotoxicity rating 0-100 (0 no damage, 100 complete death), 14 days after application
# In short: as §1
# [19] = tested on: sicklepod (Cassia obtusifolia, CASOB); assay: as above; details: phytotoxicity rating 0-100 (0 no damage, 100 complete death), 14 days after application
# In short: as §1
# [20] = tested on: velvetleaf (Abutilon theophrasti, ABUTH); assay: as above; details: phytotoxicity rating 0-100 (0 no damage, 100 complete death), 14 days after application
# In short: as §1
# [21] = tested on: field corn (Zea mays L., var. Dekalb 535, CORN); assay: Post-emerge test, crop safety; details: phytotoxicity rating 0-100 (0 no damage, 100 complete death), 14 days after application
# In short: as §2
# [22] = tested on: upland rice (Oryza sp., var. Tebonnet, RICE); assay: Post-emerge test, crop safety; details: phytotoxicity rating 0-100 (0 no damage, 100 complete death), 14 days after application
# In short: as §2
smiles,measurement,setting,value
Cn1c(C(F)(F)F)cc(=O)n(-c2c(F)cc(Cl)c(OCc3ccccc3)c2N)c1=O [Compound 1-22],"Pre-emerge Herbicidal Activity AMARE (phytotoxicity rating, scale 0-100)",[1]; 63 g ai/ha,95
same,"Pre-emerge Herbicidal Activity AMARE (phytotoxicity rating, scale 0-100)",[1]; 250 g ai/ha,100
same,"Pre-emerge Herbicidal Activity ECHCG (phytotoxicity rating, scale 0-100)",[2]; 63 g ai/ha,0
same,"Pre-emerge Herbicidal Activity ECHCG (phytotoxicity rating, scale 0-100)",[2]; 250 g ai/ha,60
same,"Pre-emerge Herbicidal Activity SETVI (phytotoxicity rating, scale 0-100)",[3]; 63 g ai/ha,90
same,"Pre-emerge Herbicidal Activity SETVI (phytotoxicity rating, scale 0-100)",[3]; 250 g ai/ha,100
same,"Pre-emerge Herbicidal Activity IPOHE (phytotoxicity rating, scale 0-100)",[4]; 63 g ai/ha,0
same,"Pre-emerge Herbicidal Activity IPOHE (phytotoxicity rating, scale 0-100)",[4]; 250 g ai/ha,20
same,"Pre-emerge Herbicidal Activity SORHA (phytotoxicity rating, scale 0-100)",[5]; 63 g ai/ha,0
same,"Pre-emerge Herbicidal Activity SORHA (phytotoxicity rating, scale 0-100)",[5]; 250 g ai/ha,60
same,"Pre-emerge Herbicidal Activity CHEAL (phytotoxicity rating, scale 0-100)",[6]; 63 g ai/ha,95
same,"Pre-emerge Herbicidal Activity CHEAL (phytotoxicity rating, scale 0-100)",[6]; 250 g ai/ha,100
same,"Pre-emerge Herbicidal Activity DIGSA (phytotoxicity rating, scale 0-100)",[7]; 63 g ai/ha,0
same,"Pre-emerge Herbicidal Activity DIGSA (phytotoxicity rating, scale 0-100)",[7]; 250 g ai/ha,60
same,"Pre-emerge Herbicidal Activity CASOB (phytotoxicity rating, scale 0-100)",[8]; 63 g ai/ha,0
same,"Pre-emerge Herbicidal Activity CASOB (phytotoxicity rating, scale 0-100)",[8]; 250 g ai/ha,0
same,"Pre-emerge Herbicidal Activity ABUTH (phytotoxicity rating, scale 0-100)",[9]; 63 g ai/ha,100
same,"Pre-emerge Herbicidal Activity ABUTH (phytotoxicity rating, scale 0-100)",[9]; 250 g ai/ha,100
same,"Pre-emerge crop damage CORN (phytotoxicity rating, scale 0-100)",[10]; 63 g ai/ha,0
same,"Pre-emerge crop damage CORN (phytotoxicity rating, scale 0-100)",[10]; 250 g ai/ha,10
same,"Pre-emerge crop damage RICE (phytotoxicity rating, scale 0-100)",[11]; 63 g ai/ha,0
same,"Pre-emerge crop damage RICE (phytotoxicity rating, scale 0-100)",[11]; 250 g ai/ha,50
same,Post-emerge Herbicidal Activity ECHCG,[12]; 63 g ai/ha,0
same,Post-emerge Herbicidal Activity ECHCG,[12]; 250 g ai/ha,0
same,Post-emerge Herbicidal Activity SETVI,[13]; 63 g ai/ha,0
same,Post-emerge Herbicidal Activity SETVI,[13]; 250 g ai/ha,80
same,Post-emerge Herbicidal Activity IPOHE,[14]; 63 g ai/ha,40
same,Post-emerge Herbicidal Activity IPOHE,[14]; 250 g ai/ha,90
same,Post-emerge Herbicidal Activity SORHA,[15]; 63 g ai/ha,0
same,Post-emerge Herbicidal Activity SORHA,[15]; 250 g ai/ha,10
same,Post-emerge Herbicidal Activity CHEAL,[16]; 63 g ai/ha,40
same,Post-emerge Herbicidal Activity CHEAL,[16]; 250 g ai/ha,80
same,Post-emerge Herbicidal Activity DIGSA,[17]; 63 g ai/ha,0
same,Post-emerge Herbicidal Activity DIGSA,[17]; 250 g ai/ha,0
same,Post-emerge Herbicidal Activity AMARE,[18]; 63 g ai/ha,60
same,Post-emerge Herbicidal Activity AMARE,[18]; 250 g ai/ha,80
same,Post-emerge Herbicidal Activity CASOB,[19]; 63 g ai/ha,0
same,Post-emerge Herbicidal Activity CASOB,[19]; 250 g ai/ha,0
same,Post-emerge Herbicidal Activity ABUTH,[20]; 63 g ai/ha,100
same,Post-emerge Herbicidal Activity ABUTH,[20]; 250 g ai/ha,100
same,Post-emerge Herbicidal Activity CORN (crop damage),[21]; 63 g ai/ha,5
same,Post-emerge Herbicidal Activity CORN (crop damage),[21]; 250 g ai/ha,15
same,Post-emerge Herbicidal Activity RICE (crop damage),[22]; 63 g ai/ha,10
same,Post-emerge Herbicidal Activity RICE (crop damage),[22]; 250 g ai/ha,40

# — patent publication US6355799B1, “Substituted benzene compounds, process for their preparation, and herbicidal and defoliant compositions containing them” (ISK Americas Incorporated, priority 1997, dated 2002)
